Reference: a compilation of properties of binary mixtures (doi:10.1016/j.molliq.2020.112489)

Assay: xn = mol fraction of the nth substance listed
Conditions: 101 kPa

Cn1cc[n+](CCO)c1.O=S(=O)([O-])C(F)(F)C(F)(F)C(F)(F)C(F)(F)F + O
electrical conductivity (298.15 K, x1 = 0.0178): 4.26 S/m
viscosity (298.15 K, x1 = 0.0178): 2.036 mPa·s
electrical conductivity (298.15 K, x1 = 0.0195): 4.4 S/m
viscosity (298.15 K, x1 = 0.0195): 2.133 mPa·s
electrical conductivity (298.15 K, x1 = 0.0212): 4.52 S/m
viscosity (298.15 K, x1 = 0.0212): 2.326 mPa·s
electrical conductivity (298.15 K, x1 = 0.0253): 4.75 S/m
viscosity (298.15 K, x1 = 0.0253): 2.66 mPa·s
electrical conductivity (298.15 K, x1 = 0.0297): 4.91 S/m
viscosity (298.15 K, x1 = 0.0297): 3.09 mPa·s
electrical conductivity (298.15 K, x1 = 0.0321): 4.97 S/m
viscosity (298.15 K, x1 = 0.0321): 3.3 mPa·s
electrical conductivity (298.15 K, x1 = 0.0348): 5 S/m
viscosity (298.15 K, x1 = 0.0348): 3.56 mPa·s
electrical conductivity (298.15 K, x1 = 0.0376): 5.1 S/m
viscosity (298.15 K, x1 = 0.0376): 3.7 mPa·s
electrical conductivity (298.15 K, x1 = 0.0405): 5.1 S/m
viscosity (298.15 K, x1 = 0.0405): 4.19 mPa·s
electrical conductivity (298.15 K, x1 = 0.0438): 5.2 S/m
viscosity (298.15 K, x1 = 0.0438): 4.43 mPa·s
electrical conductivity (298.15 K, x1 = 0.0474): 5.2 S/m
viscosity (298.15 K, x1 = 0.0474): 4.87 mPa·s
electrical conductivity (298.15 K, x1 = 0.0551): 5.2 S/m
viscosity (298.15 K, x1 = 0.0551): 5.75 mPa·s
electrical conductivity (298.15 K, x1 = 0.0644): 5.1 S/m
viscosity (298.15 K, x1 = 0.0644): 6.82 mPa·s
electrical conductivity (298.15 K, x1 = 0.07): 5.1 S/m
viscosity (298.15 K, x1 = 0.07): 7.66 mPa·s
electrical conductivity (298.15 K, x1 = 0.0756): 5 S/m
viscosity (298.15 K, x1 = 0.0756): 8.21 mPa·s
electrical conductivity (298.15 K, x1 = 0.0824): 4.88 S/m
viscosity (298.15 K, x1 = 0.0824): 9.23 mPa·s
electrical conductivity (298.15 K, x1 = 0.0899): 4.73 S/m
viscosity (298.15 K, x1 = 0.0899): 10.36 mPa·s
electrical conductivity (298.15 K, x1 = 0.1075): 4.31 S/m
viscosity (298.15 K, x1 = 0.1075): 12.91 mPa·s
electrical conductivity (298.15 K, x1 = 0.1178): 4.05 S/m
viscosity (298.15 K, x1 = 0.1178): 14.88 mPa·s
electrical conductivity (298.15 K, x1 = 0.1302): 3.73 S/m
viscosity (298.15 K, x1 = 0.1302): 16.91 mPa·s
electrical conductivity (298.15 K, x1 = 0.1441): 3.39 S/m
viscosity (298.15 K, x1 = 0.1441): 19.81 mPa·s
electrical conductivity (298.15 K, x1 = 0.1621): 2.98 S/m
viscosity (298.15 K, x1 = 0.1621): 23.25 mPa·s
electrical conductivity (298.15 K, x1 = 0.2068): 2.13 S/m
viscosity (298.15 K, x1 = 0.2068): 32.1 mPa·s
electrical conductivity (298.15 K, x1 = 0.2329): 1.74 S/m
viscosity (298.15 K, x1 = 0.2329): 38.8 mPa·s
electrical conductivity (298.15 K, x1 = 0.2751): 1.26 S/m
viscosity (298.15 K, x1 = 0.2751): 50.6 mPa·s
electrical conductivity (298.15 K, x1 = 0.3277): 0.85 S/m
viscosity (298.15 K, x1 = 0.3277): 63.8 mPa·s
electrical conductivity (298.15 K, x1 = 0.3954): 0.52 S/m
viscosity (298.15 K, x1 = 0.3954): 87.1 mPa·s
electrical conductivity (298.15 K, x1 = 0.5075): 0.241 S/m
viscosity (298.15 K, x1 = 0.5075): 133.7 mPa·s
electrical conductivity (298.15 K, x1 = 1): 0.033 S/m
viscosity (298.15 K, x1 = 1): 832 mPa·s
viscosity (308.15 K, x1 = 0.0178): 1.632 mPa·s
viscosity (308.15 K, x1 = 0.0195): 1.689 mPa·s
viscosity (308.15 K, x1 = 0.0212): 1.847 mPa·s
viscosity (308.15 K, x1 = 0.0232): 1.972 mPa·s
viscosity (308.15 K, x1 = 0.0253): 2.104 mPa·s
viscosity (308.15 K, x1 = 0.0274): 2.2 mPa·s
viscosity (308.15 K, x1 = 0.0297): 2.42 mPa·s
viscosity (308.15 K, x1 = 0.0321): 2.6 mPa·s
viscosity (308.15 K, x1 = 0.0348): 2.78 mPa·s
viscosity (308.15 K, x1 = 0.0376): 2.87 mPa·s
viscosity (308.15 K, x1 = 0.0405): 3.25 mPa·s
viscosity (308.15 K, x1 = 0.0474): 3.73 mPa·s
viscosity (308.15 K, x1 = 0.0511): 4.07 mPa·s
viscosity (308.15 K, x1 = 0.0551): 4.36 mPa·s
viscosity (308.15 K, x1 = 0.0596): 4.76 mPa·s
viscosity (308.15 K, x1 = 0.0824): 6.8 mPa·s
viscosity (308.15 K, x1 = 0.0983): 8.34 mPa·s
viscosity (308.15 K, x1 = 0.1075): 9.29 mPa·s
viscosity (308.15 K, x1 = 0.1178): 10.63 mPa·s
viscosity (308.15 K, x1 = 0.1621): 16.05 mPa·s
viscosity (308.15 K, x1 = 0.1816): 18.72 mPa·s
viscosity (308.15 K, x1 = 0.2329): 25.7 mPa·s
viscosity (308.15 K, x1 = 0.2751): 32.8 mPa·s
viscosity (308.15 K, x1 = 0.3277): 40.6 mPa·s
viscosity (308.15 K, x1 = 0.5075): 79.6 mPa·s
viscosity (308.15 K, x1 = 0.6777): 143.5 mPa·s
viscosity (308.15 K, x1 = 1): 411 mPa·s
viscosity (318.15 K, x1 = 0.0178): 1.344 mPa·s
viscosity (318.15 K, x1 = 0.0195): 1.381 mPa·s
viscosity (318.15 K, x1 = 0.0212): 1.517 mPa·s
viscosity (318.15 K, x1 = 0.0253): 1.719 mPa·s
viscosity (318.15 K, x1 = 0.0274): 1.77 mPa·s
viscosity (318.15 K, x1 = 0.0297): 1.975 mPa·s
viscosity (318.15 K, x1 = 0.0348): 2.227 mPa·s
viscosity (318.15 K, x1 = 0.0376): 2.274 mPa·s
viscosity (318.15 K, x1 = 0.0405): 2.58 mPa·s
viscosity (318.15 K, x1 = 0.0474): 2.95 mPa·s
viscosity (318.15 K, x1 = 0.0511): 3.2 mPa·s
viscosity (318.15 K, x1 = 0.0551): 3.42 mPa·s
viscosity (318.15 K, x1 = 0.0644): 3.98 mPa·s
viscosity (318.15 K, x1 = 0.07): 4.42 mPa·s
viscosity (318.15 K, x1 = 0.0756): 4.67 mPa·s
viscosity (318.15 K, x1 = 0.0824): 5.16 mPa·s
viscosity (318.15 K, x1 = 0.0899): 5.75 mPa·s
viscosity (318.15 K, x1 = 0.1075): 6.93 mPa·s
viscosity (318.15 K, x1 = 0.1178): 7.86 mPa·s
viscosity (318.15 K, x1 = 0.1441): 10.06 mPa·s
viscosity (318.15 K, x1 = 0.1621): 11.56 mPa·s
viscosity (318.15 K, x1 = 0.1816): 13.38 mPa·s
viscosity (318.15 K, x1 = 0.2068): 15.23 mPa·s
viscosity (318.15 K, x1 = 0.2751): 22.44 mPa·s
viscosity (318.15 K, x1 = 0.3277): 27.4 mPa·s
viscosity (318.15 K, x1 = 0.3954): 35.4 mPa·s
viscosity (318.15 K, x1 = 0.5075): 50.5 mPa·s
viscosity (318.15 K, x1 = 0.6777): 86.8 mPa·s
viscosity (318.15 K, x1 = 1): 224 mPa·s

CC[n+]1ccn(C)c1.O=C([O-])C(F)(F)C(F)(F)C(F)(F)C(F)(F)F + O
viscosity (298.15 K, x1 = 0.0264): 2.88 mPa·s
viscosity (298.15 K, x1 = 0.0311): 3.36 mPa·s
viscosity (298.15 K, x1 = 0.0364): 3.86 mPa·s
viscosity (298.15 K, x1 = 0.0428): 4.62 mPa·s
viscosity (298.15 K, x1 = 0.0496): 5.3 mPa·s
viscosity (298.15 K, x1 = 0.0581): 5.96 mPa·s
viscosity (298.15 K, x1 = 0.067): 6.84 mPa·s
viscosity (298.15 K, x1 = 0.0727): 7.23 mPa·s
viscosity (298.15 K, x1 = 0.0857): 8.38 mPa·s
viscosity (298.15 K, x1 = 0.133): 12.96 mPa·s
viscosity (298.15 K, x1 = 0.1458): 13.63 mPa·s
viscosity (298.15 K, x1 = 0.1625): 14.99 mPa·s
viscosity (298.15 K, x1 = 0.1788): 16.31 mPa·s
viscosity (298.15 K, x1 = 0.201): 17.94 mPa·s
viscosity (298.15 K, x1 = 0.262): 22.43 mPa·s
viscosity (298.15 K, x1 = 0.3007): 25.2 mPa·s
viscosity (298.15 K, x1 = 0.7012): 73.6 mPa·s
viscosity (298.15 K, x1 = 1): 107.5 mPa·s
viscosity (308.15 K, x1 = 0.0222): 2.016 mPa·s
viscosity (308.15 K, x1 = 0.0264): 2.221 mPa·s
viscosity (308.15 K, x1 = 0.0364): 2.91 mPa·s
viscosity (308.15 K, x1 = 0.0496): 3.92 mPa·s
viscosity (308.15 K, x1 = 0.0581): 4.37 mPa·s
viscosity (308.15 K, x1 = 0.067): 4.93 mPa·s
viscosity (308.15 K, x1 = 0.0727): 5.22 mPa·s
viscosity (308.15 K, x1 = 0.1009): 7.34 mPa·s
viscosity (308.15 K, x1 = 0.133): 9.04 mPa·s
viscosity (308.15 K, x1 = 0.1625): 10.35 mPa·s
viscosity (308.15 K, x1 = 0.1788): 11.24 mPa·s
viscosity (308.15 K, x1 = 0.2367): 14.29 mPa·s
viscosity (308.15 K, x1 = 0.4265): 24.3 mPa·s
viscosity (308.15 K, x1 = 0.7012): 46.9 mPa·s
viscosity (308.15 K, x1 = 1): 65.9 mPa·s
viscosity (318.15 K, x1 = 0.0264): 1.773 mPa·s
viscosity (318.15 K, x1 = 0.0311): 2.036 mPa·s
viscosity (318.15 K, x1 = 0.0364): 2.271 mPa·s
viscosity (318.15 K, x1 = 0.0428): 2.64 mPa·s
viscosity (318.15 K, x1 = 0.0496): 3.01 mPa·s
viscosity (318.15 K, x1 = 0.0581): 3.35 mPa·s
viscosity (318.15 K, x1 = 0.067): 3.7 mPa·s
viscosity (318.15 K, x1 = 0.0727): 3.93 mPa·s
viscosity (318.15 K, x1 = 0.0857): 4.5 mPa·s
viscosity (318.15 K, x1 = 0.1009): 5.4 mPa·s
viscosity (318.15 K, x1 = 0.133): 6.58 mPa·s
viscosity (318.15 K, x1 = 0.1788): 8.1 mPa·s
viscosity (318.15 K, x1 = 0.201): 8.85 mPa·s
viscosity (318.15 K, x1 = 0.2367): 10.22 mPa·s
viscosity (318.15 K, x1 = 0.262): 10.88 mPa·s
viscosity (318.15 K, x1 = 0.3007): 12.16 mPa·s
viscosity (318.15 K, x1 = 0.4265): 17.06 mPa·s
viscosity (318.15 K, x1 = 0.7012): 31.8 mPa·s
viscosity (318.15 K, x1 = 1): 43.1 mPa·s
